Assay results: paper PMC6727188, “Image-Based Investigation: Biorelevant Solubility of α and γ Indomethacin” (Analytical Chemistry, 2019)
In brackets after ≈: the same amount, converted by molar mass.

How the values were obtained:
[1] = Image-based single-particle-analysis (SPA) solubility measurement in a flow-through setup; type: physicochemical; conditions: for solubility ratio (RS) FaSSGF/FaSSGFblk / solubility ratio (RS) FaSSGF/HCl / solubility ratio (RS) FaSSGFblk/HCl / solubility ratio (RS) FeSSIF/FeSSIFblk: same solid-state form in different media
Description: Dissolution experiments utilizing the SPA method were performed using a custom-made flow-through setup (Figure 1). The experiments were conducted at room temperature (22 °C) rather than at 37 °C in order to ensure controlled experimental conditions. The setup enables the trapping of particles under constant-flow conditions. In this way, dissolved molecules are continuously extracted from the chamber, and sink conditions are maintained. As the measurement can be started as soon as the solvent comes in contact with the entrapped particles, the actual solubility of a metastable form can be measured before any possible solid-state transformation occurs that could affect the solubility. In eq 1, at sink conditions, bulk concentration (Cb) can be disregarded because it is practically zero. This means the dissolution rate (dm/dt) is dependent only on the equilibrium solubility at the interface (CS); k is the setup-dependent transport-rate constant determined as described by Svanbäck.[20] [drawing 1] 1 For a single measurement, approximately 10 mL of dissolution medium and less than 0.1 mg of sample were used. Online images were acquired over 15 min through the transparent part of the flow-through chamber using a USB microscope (Gigastone S1-100, Irvine, CA). At least five particles per solid-state form per medium were measured. For the analysis of the image data, a MatLab script was previously developed by Svanbäck and co-workers.[20],[22] The script enables quantification of the particle’s morphology change (i.e., dissolution rate) and, consequently, calculation of the solubility according to eq 1.

physchem = type: physicochemical; conditions: for solubility: thermodynamic from solid, Shake-flask solubility
Description: The solubilities of α and γ indomethacin were measured by the conventional shake-flask method in HCl (pH 1.6), FaSSGFblk, and FeSSIFblk. A detailed description of the methodology can be found in the Supporting Information on page S-2.
Effect of particle morphology on the solubility values measured by the SPA method was assessed by the
MatLab® regionprops toolbox. Three morphology-describing parameters were extracted; namely:
eccentricity, major axis length and minor axis length. The morphology parameters were then plotted against
solubility values of individual particles (Figure S1 and Figure S2). No specific effect of particle morphology
on solubility, in the size range studied (5-25 µm), was found.
Shake-flask solubility measurements
Indomethacin α and γ samples were placed in excess amount into vials. The vials were filled with HCl,
FaSSGFblk and FeSSIFblk media and left to stir on a rotating machine. This procedure was repeated in
triplicate for both solid-state forms and the three media. After 24h, 48h and 72h samples of 2 mL were
extracted and filtered (Whatman™ PVDF 13 mm with 0.45 µm pore size). After filtration, the samples of α
indomethacin were diluted four times with the corresponding medium […]
The drug concentration in the samples was determined using an Agilent High Performance Liquid
Chromatography (HPLC) 1260 system (Agilent Technologies, Germany). The Phenomenex Gemini NX-
C18, 3 µm, 100 x 4.6 mm column (Phenomenex, Torrance, CA) was used in the assays. The temperature of
the column was set to 30°C. Mobile phase used was 0.2% H3PO4:Acetonitrile (40:60, v:v) with flow rate of
1.5 mL/min. Injection volume was 20 µL and total run time 5 min. Detection was preformed at 270 nm.
Standard solutions of indomethacin in MilliQ:Ethanol (50:50, v:v) were prepared and analyzed with HPLC
to construct the calibration curve. All samples were analyzed in triplicate: 0.1, 0.5, 1, 10, 50 and 100 µg/mL
After 72h, the remaining excess solids, from vials were initially α form of indomethacin was placed, were
filtered and dried overnight in a vacuum oven. The next day, the excess solids were analyzed by XRPD and
XRPD diffractograms of the
remaining solids are presented in the Figure S3 and DSC thermograms in the Figure S4.
When comparing the shake-flask solubility values to the SPA solubility values, they are in the same rank
order and within the generally accepted interlaboratory variance, 0.6 log units.32 Moreover, a slight shift of
XRPD peaks to the left and appearance of a small melting peak at 159.3°C ± 0.1°C in the DSC thermograms
of the remaining excess solid samples indicate a presence of γ form (Figure S3 and S4). The presence of γ
form, in vials were initially pure α form was placed, would result in lower solubility ratio of α to γ solubility
measured by shake-flask method (1.7 ± 0.4) when compared to the ratio obtained by the SPA method (3.3 ±
0.5). With the SPA method, the actual solubility of the metastable α form was measured before any possible
solid-state transformation occurred that could affect the measurement. This was achieved by starting the
measurement as soon as the solvent came in contact with the sample and also by maintaining the sink
conditions in the flow-through cell.

[2] = Estimation of the free-energy difference between polymorphs from DSC melting data; type: physicochemical; conditions: estimated from DSC melting data, extrapolated to room temperature
Description: DSC experiments were performed using a DSC823e (Mettler-Toledo, Greifensee, Switzerland) equipped with a refrigerated cooling system (Julabo FT 900, Seelbach, Germany). Nitrogen was used as a purge gas (50 mL/min).
Samples (2–5 mg) were tightly packed into standard aluminum crucibles (40 μL) with pierced lids. Two different procedures were used in these measurements. For determination of melting temperature and enthalpy, the samples were equilibrated at 25 °C for 3 min and then linearly heated with a heating rate of 10 °C/min to 180 °C. For determination of heat capacities, the samples were equilibrated at 140 °C and then heated up to 180 °C using a TOPEM-modulated heating program with a heating rate of 1 °C/min and a pulse height of 1 °C. Samples were measured in triplicate, and thermal events were analyzed using STARe software (Mettler-Toledo, Greifensee, Switzerland). Temperatures of melting, enthalpies of melting, and heat capacities were used to estimate the free-energy difference between the α and γ polymorphs.
The free-energy difference between two polymorphs can be estimated from their melting data or their respective solubility values. […]

[3] = parameters: method as in ref 9 (Hancock et al.); conditions: 200 mL deionized water, 45 °C; ref 9 (Hancock et al.); cited from earlier work
[4] = parameters: method as in ref 15 (Fagerberg and co-workers); conditions: 37 °C, μDISS profiler; ref 15 (Fagerberg and co-workers); cited from earlier work
[5] = SPA method, FaSSGF pH 1.6, 22 °C
[6] = SPA method, FaSSGFblk (blank FaSSGF) pH 1.6, 22 °C
[7] = SPA method, FeSSIF pH 5.0, 22 °C
[8] = SPA method, FeSSIFblk (blank FeSSIF) pH 5.0, 22 °C

| SMILES | solubility [1, 5] | solubility [1, 6] | solubility [1, 7] | solubility [1, 8] | solubility ratio (RS) FaSSGF/FaSSGFblk ([1]; SPA method) | solubility ratio (RS) FaSSGF/HCl ([1]; SPA method) | solubility ratio (RS) FaSSGFblk/HCl ([1]; SPA method) | solubility ratio (RS) FeSSIF/FeSSIFblk ([1]; SPA method) | other results |
| --- | --- | --- | --- | --- | --- | --- | --- | --- | --- |
| COc1ccc2c(c1)c(CC(=O)O)c(C)n2C(=O)c1ccc(Cl)cc1 [α form, indomethacin] | 0.29 ± 0.16 µg/mL (≈ 0.811 µM) | 0.14 ± 0.09 µg/mL (≈ 0.391 µM) | 15.7 ± 10.4 µg/mL (≈ 43.9 µM) | 2.79 ± 1.67 µg/mL (≈ 7.8 µM) | 2.1 | 0.9 | 0.4 | 5.6 | solubility ([1]; SPA method, HCl pH 1.6, 22 °C): 0.34 ± 0.20 µg/mL (≈ 0.95 µM); ratio of α- to γ-solid-state-form solubility ([1]; SPA method, constant in all studied media (HCl, FaSSGFblk, FaSSGF, FeSSIFblk, FeSSIF)): 3.3 ± 0.5; free-energy difference ΔG between the α and γ polymorphs ([1]; from the SPA solubility ratios, molar units): 0.693 kcal/mol; free-energy difference ΔG between the α and γ polymorphs ([1]; from the α- to γ-solubility ratio obtained with the SPA method (eq 7), ambient temperature): 8 ± 1 J/g; free-energy difference ΔG between the α and γ polymorphs (physchem): 0.311 kcal/mol; ratio of α- to γ-solid-state-form solubility (physchem): 1.7 ± 0.4; solubility (physchem; pH 1.6, fassgf or other biorelevant): 0.5 ± 0.2 µg/mL (≈ 1.4 µM); solubility (physchem; pH 1.6, simulated gastric fluid): 0.6 ± 0.1 µg/mL (≈ 1.68 µM); solubility (physchem; pH 5, fassgf or other biorelevant): 9 ± 0.2 µg/mL (≈ 25.2 µM); free-energy difference ΔG between the α and γ polymorphs [2]: 12 ± 7 J/g; α- to γ-solubility ratio [3]: 1.1 |
| COc1ccc2c(c1)c(CC(=O)O)c(C)n2C(=O)c1ccc(Cl)cc1 [γ form, indomethacin] | 0.10 ± 0.02 µg/mL (≈ 0.279 µM) | 0.04 ± 0.03 µg/mL (≈ 0.112 µM) | 3.80 ± 1.74 µg/mL (≈ 10.6 µM) | 0.94 ± 0.58 µg/mL (≈ 2.63 µM) | 2.5 | 1.0 | 0.4 | 4.0 | solubility ([1]; SPA method, HCl pH 1.6, 22 °C, listed as Indomethacin γ): 0.10 ± 0.05 µg/mL (≈ 0.279 µM); Shake-flask solubility (physchem; pH 1.6): 0.3 ± 0.1 µg/mL; Shake-flask solubility (physchem; pH 5): 6.4 ± 0.1 µg/mL; fold increase in solubility from FeSSIFblk to FeSSIF [4]: 7.3 fold |
